Here are results for 20 compounds from publication PMC8518915, “Evaluation of 4‐(4‐Fluorobenzyl)piperazin‐1‐yl]‐Based Compounds as Competitive Tyrosinase Inhibitors Endowed with Antimelanogenic Effects” (Chemmedchem, 2021).

Structures are written as SMILES. “Also recorded” adds a separate entry of the source. Where two headings read alike, the source gives them in different places. Where only a bound is given, the exact number is not on record here.

The target in series [1] is T1, TYR from Agaricus bisporus (AbTYR) (Agaricus bisporus, UniProt C7FF04).
T1 construct: purchased Sigma Chemical Co. (St. Louis, MO, USA)
T1 sequence (C7FF04 1-392 limits assumed): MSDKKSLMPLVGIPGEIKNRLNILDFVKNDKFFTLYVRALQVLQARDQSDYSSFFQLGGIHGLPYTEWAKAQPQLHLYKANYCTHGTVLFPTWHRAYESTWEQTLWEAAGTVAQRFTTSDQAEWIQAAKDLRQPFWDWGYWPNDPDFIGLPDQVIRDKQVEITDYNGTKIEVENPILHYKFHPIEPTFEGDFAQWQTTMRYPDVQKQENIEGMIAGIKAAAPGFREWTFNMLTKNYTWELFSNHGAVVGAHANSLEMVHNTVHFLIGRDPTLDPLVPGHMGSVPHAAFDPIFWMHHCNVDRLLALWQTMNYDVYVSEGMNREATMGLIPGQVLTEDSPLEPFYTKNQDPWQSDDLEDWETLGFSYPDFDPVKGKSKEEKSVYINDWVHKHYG
Particulars: AbTYR kinetic studies; cited from earlier work.

The next series concerns AbTYR. Particulars: cited from earlier work; for IC50: efficacy against AbTYR; for mode of inhibition: prototypical AbTYR inhibitor.
Series [2] in a line: MTT assay for cell viability. Format: cell-based, Murine. Particulars: mouse, B16F10 melanoma cells, B16F10 cells, 100 μM (highest concentration). How it is done: (§1) MTT assay was used to evaluate the biosafety effectiveness of 23, 25 and 26. Cells were treated with different concentration of each compound (0–100 μM), for 48 h, to determine the potential cytotoxic effect on B16F10 cells. […] To achieve a deeper characterization of most promising and potent inhibitor 26, we further examined its inhibitory effect on the tyrosinase activity in the cellular model. DOPA staining assay was performed using lysates of B16F10 cells untreated or treated with hormone with or without the tested compound 26. […] This was evident with the appearance of a darker band compared to that of untreated control (Figure 7). […] As result, the inhibitory effects of the compound 26 was also confirmed in the cellular model.
(§2) The viability of B16F10 cells was detected by the colorimetric 3‐(4,5‐dimethylthiazol‐2‐yl)‐2,5‐diphenyltetrazolium bromide (MTT) assay. A density of 5x10^3 cells/well, in the absence or presence of compounds (ranging from 1 μM to 100 μM), were seeded in 96‐well plates. The cells were incubated for 48 h at the temperature of 37 °C. MTT solution (0.5 mg/mL) was added at the end of incubation time. The medium was removed after 3 h of incubation at 37 °C. Then, DMSO was added to the precipitates and the absorbance was determined at 560 nm using a microplate reader (Multiskan FC – Thermo Scientific). The cell viability was expressed as the percentage of the amount of living cells in treated samples relative to untreated controls (100 % viability). The mean value and standard deviation (SD) were calculated from triplicate experiments.
(In general: Tetrazolium dyes change colour on reduction, which living cells bring about.)

For another series, the system named is B16F10 cells. Description: MTT assay for cell viability. Format: cell-based, Murine. Particulars: B16F10 melanoma cells, 48 h, at the concentration inhibiting tyrosinase activity. The method, then:
as §1, §2

The target of series [3] is T1, TYR from Agaricus bisporus (AbTYR). As to the kind of experiment: Kinetic analysis of the tyrosinase inhibition (Lineweaver‐Burk plots). Format: biochemical. Particulars: L‐DOPA 0.6–5 mM. How it is done: Compounds 23, 25 and 26 were selected for kinetic studies to obtain more information about the mode of action against TYR; thereby their inhibitory effects on diphenolase activity were measured using increasing concentration of L‐DOPA. (0.6–5 mM). The reaction mixture consisted of four different concentrations of L‐DOPA (0.6–5 mM), the substrate, and AbTYR in […] (0.05 M, pH 6.8).
Compounds 23 and 25 (0.2, 0.4, and 0.8 μM), 26 (0.09, 0.18, and 0.36 μM) were added to the reaction mixture. The Michaelis‐Menten constant (Km) and maximal velocity (Vmax) of tyrosinase were determined by Lineweaver‐Burk plots.
A series of experiments were performed to determine the mode of inhibition of compounds 23, 25, 26 on tyrosinase. The reaction mixture consisted of four different concentrations of the substrate L‐DOPA (0.6–5 mM), and mushroom tyrosinase in phosphate buffer (0.05 M, pH 6.8). In addition, three different concentrations of compounds 23, 25, 26 (0.2–0.4–0.8 μM) were used for the analysis. Preincubation and measurement time were the same as discussed in mushroom tyrosinase inhibition assay. The Michaelis‐Menten constant (Km) and maximal velocity (Vmax) of tyrosinase were determined by Lineweaver‐Burk plots.

Series [4] deals with tyrosinase activity in B16F10 cells. Description: Tyrosinase zymography (L‐DOPA staining) of cell lysates. Format: cell-based, Murine. The method, then: as §1
The tyrosinase activity was performed by DOPA‐staining assay as previously reported but with slight modifications.[29] A day after seeding the B16F10 cells (6X104 cells/mL) the culture medium was changed by the same medium supplemented with either α‐MSH alone or α‐MSH plus compound (0–100 μM)) or kojic acid (100 μM). After incubation for 48 h, cells were washed and lysed using phosphate buffer (50 mM, pH 6.8) containing Triton X‐100 (1 %) and phenylmethyl‐sulfonyl fluoride (0.1 mM). Cellular lysates were centrifugated at 12000 g for 20 min at 4 °C. Bradford method was used to determine the protein content using BSA as standard. […]

Usually melting point stands for the temperature, or range, at which the solid turns liquid. As to `O=C(Cc1ccccc1Cl)N1CCN(Cc2ccc(F)cc2)CC1` [Compound 10, 1‐[4‐(4‐Fluorobenzyl)piperazin‐1‐yl]‐2‐(2‐chlorophenyl)ethan‐1‐one], the melting point lay within 100 to 102 °C.

Take `O=C(c1ccc([N+](=O)[O-])cc1[N+](=O)[O-])N1CCN(Cc2ccc(F)cc2)CC1` [Compound 5 c, [4‐(4‐fluorobenzyl)piperazin‐1‐yl](2,4‐dinitrophenyl)methanone]: the “mode of inhibition of diphenolase activity” value in series [1] is on record as “competitive inhibitor”.

Consider `O=C(Cc1cccc([N+](=O)[O-])c1)N1CCN(Cc2ccc(F)cc2)CC1` [Compound 17, 1‐[4‐(4‐Fluorobenzyl)piperazin‐1‐yl]‐2‐(3‐nitrophenyl)ethan‐1‐one], for which the melting point lay in the range of 83 to 84 °C.

Regarding `O=C(c1cc(Cl)ccc1[N+](=O)[O-])N1CCN(Cc2ccc(F)cc2)CC1` [Compound 28, 1‐[4‐(4‐Fluorobenzyl)piperazin‐1‐yl]‐(5‐chloro‐2‐nitro‐phenyl)methanone], the melting point was 130 to 131 °C.

`O=C(Cc1ccc([N+](=O)[O-])cc1)N1CCN(Cc2ccc(F)cc2)CC1` [Compound 18, 1‐[4‐(4‐Fluorobenzyl)piperazin‐1‐yl]‐2‐(4‐nitrophenyl)ethan‐1‐one] showed a melting point of 98 to 100 °C.

As a reminder, the IC50 is the concentration needed to halve the response being measured. Consider `COc1cc2[nH]cc(C(=O)CCN3CCC(Cc4ccc(F)cc4)CC3)c2cc1OC` [Compound 4, 1‐(5,6‐dimethoxy‐1H‐indol‐3‐yl)‐3‐(4‐(4‐fluorobenzyl)piperidin‐1‐yl)propan‐1‐one], for which, in the series with AbTYR, the concentration for half-maximal inhibition (IC50) was 7.56 µM and the mode of inhibition entry is on record as “mixed‐type”.

`O=c1cc(CO)occ1O` [KA, 5‐hydroxy‐2‐(hydroxymethyl)‐4H‐pyran‐4‐one]: the mode of inhibition result in the series on AbTYR (classification from literature) was “competitive”.

`COc1ccc([N+](=O)[O-])c(C(=O)N2CCN(Cc3ccc(F)cc3)CC2)c1` [Compound 32, 1‐[4‐(4‐Fluorobenzyl)piperazin‐1‐yl]‐(5‐methoxy‐2‐nitro‐phenyl)methanone] displayed a melting point of 151 to 152 °C.

One may read the viability as a read-out of living cells in per cent, often relative to untreated cells. Low readings indicate a greater loss of cells, high ones better survival. For `O=C(c1cc(F)ccc1C(F)(F)F)N1CCN(Cc2ccc(F)cc2)CC1` [Compound 25, 1‐[4‐(4‐Fluorobenzyl)piperazin‐1‐yl]‐[5‐fluoro‐2‐(trifluoromethyl)phenyl]methanone], the viability at 48 h, 100 µM in series [2] was above 90%. Besides, the cytotoxic effect result in the series on B16F10 cells was “no cytotoxic effect; also recorded: no cytotoxicity”. In addition, the “mode of inhibition of diphenolase activity” value in series [3] is “competitive inhibitors”.

Turning to `O=C(c1cccc(Cl)c1[N+](=O)[O-])N1CCN(Cc2ccc(F)cc2)CC1` [Compound 26, 1‐[4‐(4‐Fluorobenzyl)piperazin‐1‐yl]‐(3‐chloro‐2‐nitro‐phenyl)methanone], the melting point was 91 to 92 °C. In series [4] (B16F10 cells), the antimelanogenic effect entry is listed as “exerted antimelanogenic effect; also recorded: displayed antimelanogenic effects”. Besides, the “tyrosinase activity in cellular model (L‐DOPA staining)” value in series [4] (lysates of α‐MSH-treated B16F10 cells, compound 0–100 μM, 48 h) is “decreased in a dose‐response manner”. In addition, in series [2], the viability at 48 h, 100 µM is above 90%. The cytotoxic effect result with B16F10 cells is given as “absence of cytotoxicity; also recorded: no cytotoxic effect; also recorded: no cytotoxicity”. In addition, in series [3], the “mode of inhibition of diphenolase activity” value is “competitive inhibitors”.

`O=C(Cc1cccc(Br)c1)N1CCN(Cc2ccc(F)cc2)CC1` [Compound 14, 1‐[4‐(4‐Fluorobenzyl)piperazin‐1‐yl]‐2‐(3‐bromophenyl)ethan‐1‐one] came in with a melting point of 240 to 242 °C.

Turning to `CCOc1cccc(C(C)=NNC(N)=S)c1` [Compound 1, 2‐(1‐(3‐ethoxyphenyl)ethylidene)hydrazine‐1carbothioamide], in the series on AbTYR, the 50% inhibitory concentration (IC50) was 0.85 µM and the mode of inhibition entry is given as “competitive”.

As for `O=C(c1ccc(Cl)cc1[N+](=O)[O-])N1CCN(Cc2ccc(F)cc2)CC1` [Compound 27, 1‐[4‐(4‐Fluorobenzyl)piperazin‐1‐yl]‐(4‐chloro‐2‐nitro‐phenyl)methanone], the melting point is 141 to 142 °C.

As for `Oc1ccc(C=Nc2nnc(S)s2)c(O)c1` [Compound 2, 4‐(((5‐mercapto‐1,3,4‐thiadiazol‐2‐yl)imino)methyl)benzene‐1,3‐diol], in the series with AbTYR, the IC50 is 0.25 µM and the mode of inhibition result is recorded as “uncompetitive”.

In series [2], `O=C(c1cccc(F)c1C(F)(F)F)N1CCN(Cc2ccc(F)cc2)CC1` [Compound 23, 1‐[4‐(4‐Fluorobenzyl)piperazin‐1‐yl]‐[3‐fluoro‐2‐(trifluoromethyl)phenyl]methanone] showed a viability at 48 h, 100 µM above 90%. Further, the cytotoxic effect entry in the series with B16F10 cells was “no cytotoxic effect; also recorded: no cytotoxicity”. Besides, the “mode of inhibition of diphenolase activity” value in series [3] was “competitive inhibitors”.

`COc1ccc(CC(=O)N2CCN(Cc3ccc(F)cc3)CC2)cc1` [Compound 19, 1‐[4‐(4‐Fluorobenzyl)piperazin‐1‐yl]‐2‐(4‐methoxyphenyl)ethan‐1‐one] yielded a melting point of 234 to 238 °C.

Compound `COc1ccc(C(=O)N2CCN(Cc3ccc(F)cc3)CC2)c([N+](=O)[O-])c1` [Compound 31, 1‐[4‐(4‐Fluorobenzyl)piperazin‐1‐yl]‐(4‐methoxy‐2‐nitro‐phenyl)methanone] returned a melting point of 133 to 134 °C.

With `O=C(Cc1ccc(Cl)cc1)N1CCN(Cc2ccc(F)cc2)CC1` [Compound 12, 1‐[4‐(4‐Fluorobenzyl)piperazin‐1‐yl]‐2‐(4‐chlorophenyl)ethan‐1‐one], the melting point fell in the range of 120 to 122 °C.

As for `O=C(CN1CCC(Cc2ccccc2)CC1)N1CCN(c2ccc(O)cc2)CC1` [Compound 3, 2‐(4‐benzyl‐1‐piperidyl)‐1‐[4‐(4‐hydroxyphenyl)piperazin‐1‐yl]ethanone], in the series with AbTYR, the IC50 is 3.8 µM and the mode of inhibition entry was “noncompetitive”.

Take `O=C(Cc1ccccc1[N+](=O)[O-])N1CCN(Cc2ccc(F)cc2)CC1` [Compound 16, 1‐[4‐(4‐Fluorobenzyl)piperazin‐1‐yl]‐2‐(2‐nitrophenyl)ethan‐1‐one]: the melting point lay within 88 to 90 °C.
